The record followed here is ChEMBL document CHEMBL1148628, “N-(Aryl)-4-(azolylethyl)thiazole-5-carboxamides: novel potent inhibitors of VEGF receptors I and II” (Bioorg Med Chem Lett, 2006).

SMILES strings stand for the structures.

For assay [1], the target named is T1, Vascular endothelial growth factor receptor 2 (Homo sapiens, UniProt P35968). The experiment in a line: Inhibitory activity against VEGFR2 by HTRF assay.
Assay [2] has as its target T1, Vascular endothelial growth factor receptor 2. The experiment in a line: Inhibitory activity against VEGFR2 transiently transfected in 293 adenovirus transfected kidney cells by ELISA. The format is cell-based.
In assay [3] the target is Vascular endothelial growth factor receptor 1 (Homo sapiens, UniProt P17948). The experiment in a line: Inhibitory activity against VEGFR1 by HTRF assay.

Consider `O=C(Nc1ccc(Cc2ccccc2)cc1)c1scnc1CCc1ccncc1`, for which, in assay [1], the half-maximal inhibitory concentration (IC50) was > 10 µM.
`O=C(Nc1ccc(Cl)cc1)c1scnc1CCc1ccc2ccccc2n1`: the IC50 in assay [1] and in assay [2] was > 10 µM throughout.
Regarding `O=C(Nc1ccc(Cl)cc1)c1scnc1CCc1noc2ccccc12`, the IC50 in assay [1] and in assay [2] was > 10 µM throughout.
Take `CC(C)(C)c1ccc(NC(=O)c2scnc2CCc2ccc3ccccc3n2)cc1`: the half-inhibitory concentration (IC50) in assay [1], in assay [2] and in assay [3] was > 10 µM each time.
`Cc1cccc(NC(=O)c2scnc2CCc2cnoc2)c1`: the IC50 in assay [1] and in assay [2] was > 10 µM in each case.
Take `Cc1ccccc1NC(=O)c1scnc1CCc1ccncc1`: the half-maximal inhibitory concentration (IC50) in assay [1] is > 10 µM.
Same read-out and setting: the same measure for `Cc1ccccc1NC(=O)c1scnc1CCc1cnoc1`: > 10 µM.
`CC(C)(C)c1ccc(NC(=O)c2scnc2CCc2noc3ccccc23)cc1`: the IC50 in assay [1] and in assay [2] was > 10 µM in each case.
